Our source for the EC50 values is US11617777B2, “Cytotoxic and anti-mitotic compounds, and methods of using the same” (ZYMEWORKS BC INC., priority 2013, dated 2023).

Assay [1] deals with Jurkat cells. As to the kind of experiment: Cytotoxicity assay of SMCC- and LC-SPDP-linked ADCs and free compounds. The class given is cell-based. The conditions noted are these: Homo sapiens. As to the method: (§1) The purified ADCs were then analysed for: total protein content (BCA assay, Pierce microBCA protocol), relative affinity for antigen binding (equilibrium native binding), and selective cytotoxic killing of HER2-positive cells (HCC1954) compared HER2-negative cells (Jurkat).
(§2) On the day prior to adding test articles, HCC1954 cells were added to opaque-walled 96-well tissue culture-treated microtiter plates using complete growth medium at a density of 2500 cells/100 microlitre (uL) of medium. The HCC1954 cells were incubated for one night at 37° C./5% CO2 to allow the cells to attach to the microtiter plate surface. On the day that test articles were added, Jurkat cells are added to separate 96-well microtiter plates at 2500 cells/100 uL using the same growth medium as HCC1954. To compare the ADC killing to that obtained from the free-compounds, the n-acyl sulfonamide compounds were first serially diluted using dimethyl sulfoxide or DMA, and then the prepared dilutions are added to complete growth medium at five-times the final concentration—compounds were then titrated 1:3, eight steps. To test the ADCs, they were diluted directly in growth medium at five-times the final concentration—ADCs were then titrated 1:3, eight steps. A control with no test article present (growth medium alone) was included on each microtiter plate in sextuplicate. The prepared compound/ADC titrations were added (twenty-five uL/well) in triplicate to both the HCC1954 cells and Jurkat cells. The cells and titrations were incubated at 37° C./5% CO2 for three nights. After the incubation, cell viability was measured using CellTiter-Glo® reagent by adding thirty uL of prepared CellTiter-Glo® to each assay well. The assay was incubated for at least twenty minutes in the dark prior to measuring emitted luminescence using a microplate luminometer (500 ms integration time). The collected relative luminescence units (RLU) were converted to % cytotoxicity using the Growth medium alone control mentioned above (% Cytotoxicity=1−[Well RLU/average medium alone control RLU]).

Assay [2] has as its system HCC1954 cells. The description is as above. The class given is cell-based. The note with it: Homo sapiens. As to the method:
as §1, §2

Assay [3] has as its system Jurkat cells. As to the kind of experiment: Cytotoxicity of compounds, CellTiter-Glo. The class given is cell-based, Human. The note with it: Homo sapiens, Jurkat. An outline of the steps: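 HCC1954 plated at 2500 cells/100 uL and attached overnight; Jurkat plated at 2500 cells/100 uL on the day of dosing. Cells exposed to 8-step 1:3 compound titrations for three nights at 37° C./5% CO2, in triplicate. CellTiter-Glo luminescence converted to % cytotoxicity versus medium-only control; EC50 by three-parameter nonlinear regression.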
For orientation: ATP-based viability assays read luminescence as a measure of living cells.

For assay [4], the system named is HCC1954 cells. Description: Cytotoxicity of compounds, CellTiter-Glo. The note with it: Homo sapiens. It is filed as cell-based. From the text:
Cell lines used: Human T-cell leukemia cell line Jurkat (ATCC: TIB-152); HCC1954 (ATCC: CRL. 2338); Human Pancreatic cells lines: AsPC-1 (ATCC: CRL-1682), BxPC-3 (ATCC: CRL.1687), HPAF-II (ATCC: CRL.1997), MiaPaCa2 (ATCC: CRL.1420), PANC-1 (ATCC: CRL.1469), Capan-1 (ATCC: HTB-79), Capan-2 (ATCC: HTB-80) and the Human gastric carcinoma cell line NCI-N87 (ATCC: CRL. 5822); AML-193 (ATCC: CRL.9589), CCRF-CEM (ATCC: CCL-119), DU145 (ATCC: HTB-81), PC-3 (ATCC: CRL.1435), A-431 (ATCC: CRL.1555), HT-29 (ATCC: HTB-38), A-172 (ATCC: CRL.1620), NCI-H358 (ATCC: CRL.5807), A549 (ATCC: CCL-185), Colo-205 (ATCC: CCL-222), MDA-MB-231 (ATCC: HTB-26), OVCAR-3 (ATCC: HTB-161), OV-90 (ATCC: CRL.11732), OE19 (Sigma: 96071721), RT 112/84 (Sigma: 85061106).
On the day prior to adding compounds, HCC1954 AsPC-1, BxPC-3, HPAF-II, MiaPaCa2, PANC-1, Capan-1, Capan-2 and NCI-N87 cells were added to opaque-walled 96-well tissue culture-treated microtiter plates using complete growth medium at a density of 2500 cells/100 microlitre (uL) of medium. These adherant cell lines cells were incubated for one night at 37° C./5% CO2 to allow the cells to attach to the microtiter plate surface. On the day that compounds were added, Jurkat cells are added to separate 96-well microtiter plates at 2500 cells/100 uL using the same growth medium as HCC1954. Compound were first serially diluted using dimethyl sulfoxide, and then the prepared dilutions are added to complete growth medium at five-times the final concentration—compounds were then titrated 1:3, eight steps. A control with no compound (growth medium alone) was included on each microtiter plate in sextuplicate. The prepared compounds titrations were added (twenty-five uL/well) in triplicate. The cells and compound titrations were incubated at 37° C./5% CO2 for three nights. After the incubation, cell viability is measured using CellTiter-Glo® reagent by adding thirty uL of prepared CellTiter-Glo® to each assay well. The assay is incubated for at least twenty minutes in the dark prior to measuring emitted luminescence using a microplate luminometer (500 ms integration time). The collected relative luminescence units (RLU) are converted to % cytotoxicity using the Growth medium alone control mentioned above (% Cytotoxicity=1−[Well RLU/average medium alone control RLU]).
GraphPad Prism was used for generation of EC50 values using three parameter non-linear regression curve fitting.

Setting [5] is: Table 10, Coupling #2, read-out: Jurkat Best-fit EC50.
Setting [6] is: HCC1954, Table 10, Coupling #2, read-out: HCC1954 Best-fit EC50.
Setting [7] is: Table 1, Jurkat cells (HER2−), three nights, read-out: Jurkat cells (HER2−) EC50.
Where [8] appears, read: Table 3, Cytotoxicity of Compounds on Jurkat Cells, read-out: EC50.
Setting [9] is: HCC1954, Table 4, Cytotoxicity of Compounds on HCC-1954 Cells, read-out: EC50.
Where [10] appears, read: Table 1, HCC1954 cells (HER2+), three nights, read-out: HCC1954 cells (HER2+) EC50.
Setting [11] is: Table 2, HCC1954, read-out: HCC1954 EC50.

Take `CN[C@H](C(=O)N[C@H](C(=O)N(C)[C@H](/C=C(\C)C(=O)NS(=O)(=O)CCS)C(C)C)C(C)(C)C)C(C)(C)c1ccccc1` [Compound B, (S,E)-N-(2-mercaptoethylsulfonyl)-2,5-dimethyl-4-((S)—N,3,3-trimethyl-2-((S)-3-methyl-2-(methylamino)-3-phenylbutanamido)butanamido)hex-2-enamide]: the EC50 (in general, the concentration that produces a half-maximal response) amounted to 10 nM in the assay on Jurkat cells [1] (Table 9, Coupling #1, read-out: Jurkat Best-fit EC50); 36 nM in the assay on Jurkat cells [1] (setting [5]); 8.1 nM with HCC1954 cells [2] (HCC1954, Table 9, Coupling #1, read-out: HCC1954 Best-fit EC50); 9.2 nM in the assay with HCC1954 cells [2] (setting [6]); 10.5 nM in the assay with Jurkat cells [3] (setting [7]); 59 nM with Jurkat cells [3] (Table 2, read-out: Jurkat EC50). Moreover, the EC50 in the assay with Jurkat cells [3] (setting [8]) worked out at 59 nM; in the assay with HCC1954 cells [4] (setting [9]) it was 13 nM; with HCC1954 cells [4] (setting [10]), 8.1 nM; with HCC1954 cells [4] (setting [11]), 13 nM.

In the case of `CN[C@H](C(=O)N[C@H](C(=O)N(C)[C@H](/C=C(\C)C(=O)NS(=O)(=O)c1ccc(CS)cc1)C(C)C)C(C)(C)C)C(C)(C)c1ccccc1` [Compound C, (S,E)-N-(4-(mercaptomethyl)phenylsulfonyl)-2,5-dimethyl-4-((S)—N,3,3-trimethyl-2-((S)-3-methyl-2-(methylamino)-3-phenylbutanamido)butanamido)hex-2-enamide], the EC50 came to 0.57 nM in the assay on Jurkat cells [1] (setting [5]); 0.67 nM in the assay with HCC1954 cells [2] (setting [6]); 0.57 nM with Jurkat cells [3] (setting [7]); 1.9 nM with Jurkat cells [3] (Table 2, read-out: Jurkat EC50); 1.9 nM in the assay on Jurkat cells [3] (setting [8]); 1.3 nM in the assay on HCC1954 cells [4] (setting [9]). Further, the EC50 in the assay on HCC1954 cells [4] (setting [10]) amounted to 0.67 nM; in the assay with HCC1954 cells [4] (setting [11]) it was 1.3 nM.
